ChEMBL document CHEMBL3351663, “Discovery of acylurea isosteres of 2-acylaminothiadiazole in the azaxanthene series of glucocorticoid receptor agonists” (Bioorg Med Chem Lett, 2014)

Assays:
Glucocorticoid receptor [1] = target: T1, Glucocorticoid receptor (Homo sapiens, UniProt P04150); experiment: Agonist activity at glucocorticoid receptor in human A549 cells assessed as E-selectin transrepression by luciferase reporter gene assay; assay type: cell-based
T1 sequence (P04150 whole entry): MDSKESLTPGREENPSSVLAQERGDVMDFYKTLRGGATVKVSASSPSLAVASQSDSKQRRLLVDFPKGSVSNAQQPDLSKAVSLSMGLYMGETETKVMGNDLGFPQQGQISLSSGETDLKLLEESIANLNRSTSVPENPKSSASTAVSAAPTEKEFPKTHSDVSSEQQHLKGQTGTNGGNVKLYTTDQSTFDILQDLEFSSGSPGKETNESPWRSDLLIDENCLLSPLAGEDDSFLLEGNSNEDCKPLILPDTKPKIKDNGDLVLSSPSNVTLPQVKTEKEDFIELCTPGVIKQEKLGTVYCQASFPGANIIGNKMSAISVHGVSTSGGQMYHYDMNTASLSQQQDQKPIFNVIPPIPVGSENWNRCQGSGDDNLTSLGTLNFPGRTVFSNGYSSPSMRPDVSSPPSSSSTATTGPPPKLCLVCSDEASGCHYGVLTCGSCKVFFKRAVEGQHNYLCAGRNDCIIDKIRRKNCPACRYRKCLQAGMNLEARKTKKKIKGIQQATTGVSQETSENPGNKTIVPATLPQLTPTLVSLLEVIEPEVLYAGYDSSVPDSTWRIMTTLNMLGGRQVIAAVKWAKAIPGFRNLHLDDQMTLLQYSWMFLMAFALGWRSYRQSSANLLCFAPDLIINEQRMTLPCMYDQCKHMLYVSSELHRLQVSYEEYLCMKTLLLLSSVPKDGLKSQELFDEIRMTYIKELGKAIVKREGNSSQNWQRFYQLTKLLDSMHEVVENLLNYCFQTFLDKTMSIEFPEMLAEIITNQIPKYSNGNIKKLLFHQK

Glucocorticoid receptor [2] = target: T1, Glucocorticoid receptor; parameters: species or system Blood
Glucocorticoid receptor [3] = target: T1, Glucocorticoid receptor; experiment: Agonist activity at glucocorticoid receptor in human HeLa cells assessed as NP-1 transactivation by luciferase reporter gene assay; assay type: cell-based
Progesterone receptor = target: T2, Progesterone receptor (Homo sapiens, UniProt P06401); experiment: Binding affinity to progesterone receptor (unknown origin) by fluorescence polarization assay
T2 sequence (P06401 whole entry): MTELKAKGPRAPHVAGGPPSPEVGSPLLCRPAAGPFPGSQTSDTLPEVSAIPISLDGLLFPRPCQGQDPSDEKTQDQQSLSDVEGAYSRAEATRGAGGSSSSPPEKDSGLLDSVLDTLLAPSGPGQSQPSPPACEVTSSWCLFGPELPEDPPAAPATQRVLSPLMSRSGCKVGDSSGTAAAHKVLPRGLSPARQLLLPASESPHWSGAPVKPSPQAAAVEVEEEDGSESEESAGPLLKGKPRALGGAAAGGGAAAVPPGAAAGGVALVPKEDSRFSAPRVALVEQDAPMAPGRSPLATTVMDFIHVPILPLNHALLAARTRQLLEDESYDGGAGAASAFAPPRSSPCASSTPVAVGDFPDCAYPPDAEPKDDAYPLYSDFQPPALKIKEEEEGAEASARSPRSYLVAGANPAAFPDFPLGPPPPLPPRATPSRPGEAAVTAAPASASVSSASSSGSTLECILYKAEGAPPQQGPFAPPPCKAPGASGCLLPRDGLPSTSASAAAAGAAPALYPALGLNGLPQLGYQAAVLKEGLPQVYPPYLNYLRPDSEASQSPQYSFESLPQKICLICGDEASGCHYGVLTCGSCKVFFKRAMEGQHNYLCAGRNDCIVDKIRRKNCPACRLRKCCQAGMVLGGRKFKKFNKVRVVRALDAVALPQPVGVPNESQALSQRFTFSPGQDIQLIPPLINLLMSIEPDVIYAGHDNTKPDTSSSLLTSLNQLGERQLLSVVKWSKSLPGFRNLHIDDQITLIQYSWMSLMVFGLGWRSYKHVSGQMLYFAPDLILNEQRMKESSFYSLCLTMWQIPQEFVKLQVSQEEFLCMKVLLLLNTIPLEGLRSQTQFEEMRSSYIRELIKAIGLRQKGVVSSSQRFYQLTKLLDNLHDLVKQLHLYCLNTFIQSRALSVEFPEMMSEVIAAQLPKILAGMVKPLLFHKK

Glucocorticoid receptor [4] = target: T1, Glucocorticoid receptor; experiment: Agonist activity at glucocorticoid receptor in human A549 cells assessed as AP-1 transrepression by luciferase reporter gene assay; assay type: cell-based
Glucocorticoid receptor [5] = target: T1, Glucocorticoid receptor; experiment: Binding affinity to glucocorticoid receptor (unknown origin) by fluorescence polarization assay
Liver microsome [6] = experiment: Metabolic stability in human liver microsomes assessed as compound remaining
Liver microsome [7] = experiment: Metabolic stability in rat liver microsomes assessed as compound remaining
Liver = experiment: Metabolic stability in mouse liver microsomes assessed as compound remaining
[8] = Drug uptake in Lewis rat serum at 10 mg/kg, po after 3 hrs; assay type: ADME, organism-based; parameters: dose 10 mg/kg, route oral; settings: read-out: Drug uptake
[9] = Clearance in iv dosed dog; assay type: ADME, organism-based, Canis lupus familiaris; settings: in vivo
[10] = Clearance in rat at 1 mg/kg, iv; assay type: ADME, organism-based; parameters: dose 1 mg/kg, route intravenous; settings: in vivo
[11] = Half life in human liver microsomes; settings: liver microsomes
[12] = Half life in rat liver microsomes; assay type: ADME
[13] = Half life in dog liver microsomes; assay type: ADME, Canis lupus familiaris
Rattus norvegicus [14] = species: Rattus norvegicus; experiment: animal or person; assay type: functional; settings: Lewis, route oral
[15] = Oral bioavailability in dog at 5 mg/kg; assay type: ADME, organism-based, Canis lupus familiaris; settings: in vivo
[16] = Oral bioavailability in rat at 10 mg/kg; assay type: ADME, organism-based; settings: in vivo
Rattus norvegicus [17] = experiment: Antiinflammatory activity in Lewis rat assessed as inhibition of LPS-induced TNF-alpha production at 30 mg/kg, po administered 90 mins prior to LPS challenge measured after 90 mins relative to vehicle-treated control; assay type: functional

| SMILES | EC50 (Glucocorticoid receptor [1]) | EC50 (Glucocorticoid receptor [2]) | EC50 (Glucocorticoid receptor [3]) | Ki (Progesterone receptor) | EC50 (Glucocorticoid receptor [4]) | Ki (Glucocorticoid receptor [5]) | Stability (Liver microsome [6]) | Stability (Liver microsome [7]) | Stability (Liver) | further results |
| --- | --- | --- | --- | --- | --- | --- | --- | --- | --- | --- |
| CN(C)C(=O)c1ccc(-c2ccc3c(n2)Oc2ccccc2[C@@H]3C(C)(C)C(=O)Nc2nncs2)cc1 | 33.8 nM | 830 nM | 242 nM | 1530 nM | 33.2 nM | 1.9 nM | – | – | – | – |
| CCN(C)C(=O)c1ccc(-c2ccc3c(n2)Oc2ccccc2[C@@H]3C(C)(C)C(=O)Nc2nncs2)cc1 | 6.89 nM | 379 nM | 98.5 nM | 1830 nM | 17.7 nM | 1.6 nM | – | – | – | – |
| CC(=O)NC(=O)C(C)(C)[C@@H]1c2ccc(-c3ccc(C(=O)N(C)C)cc3)nc2Oc2c(F)cccc21 | 109 nM | 1890 nM | 1050 nM | 12400 nM | 213 nM | 69.4 nM | – | – | – | – |
| CC(=O)NC(=O)C(C)(C)[C@@H]1c2ccc(-c3ccc(C(=O)N4CCCC4)cc3)nc2Oc2c(F)cccc21 | 3.6 nM | 218 nM | 27 nM | 12400 nM | 5.1 nM | 2.5 nM | – | – | – | – |
| CC(C)C(=O)NC(=O)C(C)(C)[C@@H]1c2ccc(-c3ccc(C(=O)N4CCOCC4)cc3)nc2Oc2c(F)cccc21 | 74.8 nM | 389 nM | 1040 nM | 5040 nM | 23.7 nM | – | – | – | – | – |
| CC(C)(C(=O)NC(=O)C1CC1)[C@@H]1c2ccc(-c3ccc(C(=O)N4CCOCC4)cc3)nc2Oc2c(F)cccc21 | 17.6 nM | 418 nM | 177 nM | 2040 nM | 18.4 nM | 8.5 nM | – | – | – | – |
| CC(C)(C(=O)NC(=O)C1CCC1)[C@@H]1c2ccc(-c3ccc(C(=O)N4CCOCC4)cc3)nc2Oc2c(F)cccc21 | 32.8 nM | 2380 nM | 586 nM | 5340 nM | 17.5 nM | 8.7 nM | – | – | – | – |
| CN(C)C(=O)NC(=O)C(C)(C)[C@@H]1c2ccc(-c3ccc(C(=O)N4CCOCC4)cc3)nc2Oc2c(F)cccc21 | 203 nM | – | 8910 nM | 10600 nM | 907 nM | 110 nM | – | – | – | – |
| CNC(=O)NC(=O)C(C)(C)[C@@H]1c2ccc(-c3ccc(C(=O)N4CCOCC4)cc3)nc2Oc2c(F)cccc21 | 16.1 nM | 1040 nM | 302 nM | 1170 nM | 10.7 nM | 6.9 nM | – | – | – | – |
| CCNC(=O)NC(=O)C(C)(C)[C@@H]1c2ccc(-c3ccc(C(=O)N4CCOCC4)cc3)nc2Oc2c(F)cccc21 | – | – | – | 2910 nM | – | – | – | – | – | – |
| CC(C)(C(=O)NC(=O)NC1CCC1)[C@@H]1c2ccc(-c3ccc(C(=O)N4CCOCC4)cc3)nc2Oc2c(F)cccc21 | 32.8 nM | 2380 nM | 676 nM | 5340 nM | 17.5 nM | 8.7 nM | – | – | – | – |
| CC(C)(C(=O)NC(N)=O)[C@H]1c2ccccc2Oc2nc(-c3ccc(C(=O)N4CCCC4)cc3)ccc21 | 5 nM | 207 nM | 49.3 nM | 2320 nM | 8.7 nM | 1.9 nM | 78% | 49% | 76% | – |
| CC(C)(C(=O)NC(N)=O)[C@@H]1c2ccc(-c3ccc(C(=O)N4CC[C@H](F)C4)cc3)nc2Oc2c(F)cccc21 | 0.6 nM | – | 1.3 nM | 33300 nM | 0.8 nM | 1.2 nM | 56% | 67% | 77% | – |
| CC(C)(C(=O)NC(N)=O)[C@@H]1c2ccc(-c3ccc(C(=O)N4CCCC4)nc3)nc2Oc2c(F)cccc21 | 12.2 nM | 211 nM | 113 nM | 1360 nM | 16.5 nM | 2 nM | 73% | 86% | 86% | – |
| C[C@@H]1C[C@H]2[C@@H]3CCC4=CC(=O)C=C[C@]4(C)[C@@]3(F)[C@@H](O)C[C@]2(C)[C@@]1(O)C(=O)CO [DEXAMETHASONE] | – | – | – | 778 nM | – | – | – | – | – | – |
| C[C@]12C=CC(=O)C=C1CC[C@@H]1[C@@H]2[C@@H](O)C[C@@]2(C)[C@H]1CC[C@]2(O)C(=O)CO [PREDNISOLONE] | – | – | – | – | – | – | – | – | – | inhibition in vivo at 30 mg/kg (Rattus norvegicus [17]): 75% |

Continued, in another order:

| EC50 (Glucocorticoid receptor [1]) | EC50 (Glucocorticoid receptor [2]) | EC50 (Glucocorticoid receptor [3]) | Ki (Progesterone receptor) | EC50 (Glucocorticoid receptor [4]) | Ki (Glucocorticoid receptor [5]) | Stability (Liver microsome [6]) | Stability (Liver microsome [7]) | Stability (Liver) | SMILES | further results |
| --- | --- | --- | --- | --- | --- | --- | --- | --- | --- | --- |
| 3.2 nM | 88 nM | 14 nM | 268 nM | 5 nM | 5.9 nM | – | – | – | CC(=O)NC(=O)C(C)(C)[C@@H]1c2ccc(-c3ccc(C(=O)N4CCOCC4)cc3)nc2Oc2c(F)cccc21 | – |
| – | – | – | 623 nM | – | – | – | – | – | COc1ccc(CNC(=O)NC(=O)C(C)(C)[C@@H]2c3ccc(-c4ccc(C(=O)N5CCOCC5)cc4)nc3Oc3c(F)cccc32)cc1 | – |
| 4.8 nM | 3050 nM | 11 nM | 282 nM | 6.2 nM | 1.5 nM | 95% | 86% | 75% | CC(C)(C(=O)NC(N)=O)[C@H]1c2ccccc2Oc2nc(-c3ccc(C(=O)N4CCOCC4)cc3)ccc21 | – |
| 1.4 nM | – | 5.3 nM | 604 nM | 1.6 nM | 0.7 nM | 89% | 71% | 73% | CC(C)(C(=O)NC(N)=O)[C@@H]1c2ccc(-c3ccc(C(=O)N4CCCC4)cc3)nc2Oc2c(F)cccc21 | – |
| – | – | – | 22.7 nM | – | – | – | – | – | CC(C)(C(=O)NC(N)=O)[C@@H]1c2ccc(-c3ccc(C(=O)N4CCOCC4)nc3)nc2Oc2c(F)cccc21 | – |
| 14.7 nM | 199 nM | 107 nM | 106 nM | 21.9 nM | 4 nM | 73% | 83% | 76% | CC(C)(O)c1ccc(-c2ccc3c(n2)Oc2c(F)cccc2[C@@H]3C(C)(C)C(=O)NC(N)=O)cn1 | – |
| 3.8 nM | 355 nM | 59.2 nM | 313 nM | 6.7 nM | 0.7 nM | 97% | 58% | 86% | CC(C)Oc1ccc(-c2ccc3c(n2)Oc2c(F)cccc2[C@@H]3C(C)(C)C(=O)NC(N)=O)cn1 | concentration at 3 h [8]: 500 nM; clearance [9]: 9 mL/min/kg; clearance [10]: 20.8 mL/min/kg; half-life [11]: 3.18 h; half-life [12]: 0.233 h; half-life [13]: 1.63 h; inhibition in vivo at 10 mg/kg (Rattus norvegicus [14]): 69%; bioavailability [15]: 82%; bioavailability [16]: 25.7% |
